Measured values taken from US9920032B2, “Heterocyclic compounds useful as pim kinase inhibitors” (Incyte Corporation, priority 2015, dated 2018).

Experiments:
Assay type in all cases: biochemical
[1] = molecular target: Pim-1 (Homo sapiens (Human), UniProt P11309); test: Pim-1 kinase assay; settings: 1 mM ATP; read-out: PIM1 IC50
In short: (§1)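 Biotin-BAD peptide (0.05 μM) phosphorylated with 1 mM ATP by 2.5 pM Pim-1 or 1.25 pM Pim-3 in Tris pH 7.5/MgCl2/DTT buffer, 1 h at 25° C. EDTA stop; phospho-BAD (Ser112) antibody with streptavidin donor and Protein-A acceptor beads, 1 h dark at room temperature before AlphaScreen-type bead read.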

[2] = molecular target: Pim-3 (Homo sapiens (Human), UniProt Q86V86); test: Pim-3 kinase assay; settings: 1 mM ATP; read-out: PIM3 IC50
In short: as §1

[3] = molecular target: Pim-2 (Homo sapiens (Human), UniProt Q9P1W9); test: Pim-2 kinase assay; settings: 1 mM ATP; read-out: PIM2 IC50
Pim-2, sequence (Q9P1W9 whole entry): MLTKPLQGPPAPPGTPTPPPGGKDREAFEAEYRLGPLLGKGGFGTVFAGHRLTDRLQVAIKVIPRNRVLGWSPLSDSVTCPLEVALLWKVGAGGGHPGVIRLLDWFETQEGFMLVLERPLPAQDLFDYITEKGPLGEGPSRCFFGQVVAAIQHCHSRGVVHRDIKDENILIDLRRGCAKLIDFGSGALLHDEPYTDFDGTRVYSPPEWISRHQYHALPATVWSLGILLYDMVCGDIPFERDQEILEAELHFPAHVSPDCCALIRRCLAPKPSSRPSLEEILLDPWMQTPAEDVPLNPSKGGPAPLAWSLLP
In short: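 TR-FRET assay with 1 nM enzyme, 0.05 μM fluorescein-CREBtide and 1 mM ATP in Tris pH 7.5 buffer with MgCl2, DTT, BSA and Tween-20, run 2 h at 25° C. Stopped with EDTA and Tb-labelled anti-CREB pSer133 antibody, then read after 30 min at room temperature.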

Pim-1, sequence (P11309 whole entry): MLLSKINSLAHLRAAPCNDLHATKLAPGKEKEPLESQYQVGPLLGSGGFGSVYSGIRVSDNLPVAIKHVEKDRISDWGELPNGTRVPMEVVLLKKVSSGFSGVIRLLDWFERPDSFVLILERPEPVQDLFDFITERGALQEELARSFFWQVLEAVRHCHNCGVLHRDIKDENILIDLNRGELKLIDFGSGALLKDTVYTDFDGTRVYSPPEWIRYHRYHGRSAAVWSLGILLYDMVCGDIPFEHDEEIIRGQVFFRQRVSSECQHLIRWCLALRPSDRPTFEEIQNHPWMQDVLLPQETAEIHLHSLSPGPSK

SMILES: C[C@@H]1C[C@H](N)C[C@H](c2ccncc2NC(=O)c2ccc(F)c3cc(N4CCC[C@@H](C)C4)cnc23)C1 [Example 105, N-(4-((1R,3S,5S)-3-Amino-5-methylcyclohexyl)pyridin-3-yl)-5-fluoro-3-((R)-3-methylpiperidin-1-yl)quinoline-8-carboxamide]
- IC50 [1]: ≤ 10 nM
- IC50 [2]: ≤ 10 nM
- IC50 [3]: ≤ 100 nM

SMILES: C[C@@H]1C[C@H](N)C[C@H](c2ccncc2NC(=O)c2ccc(F)c3cc(C#CC4CC4)cnc23)C1 [Example 14, N-{4-[(1R,3S,5S)-3-Amino-5-methylcyclohexyl]pyridin-3-yl}-3-(cyclopropylethynyl)-5-fluoroquinoline-8-carboxamide]
- IC50 [1]: ≤ 10 nM
- IC50 [2]: ≤ 10 nM
- IC50 [3]: 100 to 1000 nM

SMILES: C[C@@H]1C[C@H](N)C[C@H](c2ccncc2NC(=O)c2ccc(F)c3cc(N4CCc5ccccc54)cnc23)C1 [Example 79, N-(4-((1R,3S,5S)-3-Amino-5-methylcyclohexyl)pyridin-3-yl)-5-fluoro-3-(indolin-1-yl)quinoline-8-carboxamide]
- IC50 [1]: ≤ 10 nM
- IC50 [2]: ≤ 10 nM
- IC50 [3]: 100 to 1000 nM

SMILES: C[C@@H]1C[C@H](N)C[C@H](c2ccncc2NC(=O)c2ccc(F)c3cc(N4C[C@H]5C[C@@H]4CN5S(C)(=O)=O)cnc23)C1 [Example 87, N-(4-((1R,3S,5S)-3-Amino-5-methylcyclohexyl)pyridin-3-yl)-5-fluoro-3-((1R,4R)-5-(methylsulfonyl)-2,5-diazabicyclo[2.2.1]heptan-2-yl)quinoline-8-carboxamide]
- IC50 [1]: ≤ 10 nM
- IC50 [2]: ≤ 10 nM
- IC50 [3]: 100 to 1000 nM

SMILES: C[C@@H]1C[C@H](N)C[C@H](c2ccncc2NC(=O)c2ccc(F)c3cc(N4CCN(S(C)(=O)=O)C[C@H]4C)cnc23)C1 [Example 86, N-(4-((1R,3S,5S)-3-Amino-5-methylcyclohexyl)pyridin-3-yl)-5-fluoro-3-((R)-2-methyl-4-(methylsulfonyl)piperazin-1-yl)quinoline-8-carboxamide]
- IC50 [1]: ≤ 10 nM
- IC50 [2]: ≤ 10 nM
- IC50 [3]: ≤ 100 nM

SMILES: C[C@@H]1C[C@H](N)C[C@H](c2ccncc2NC(=O)c2cccc3cc(N4CCC[C@H]4C)cnc23)C1 [Example 68, N-(4-((1R,3S,5S)-3-Amino-5-methylcyclohexyl)pyridin-3-yl)-3-((R)-2-methylpyrrolidin-1-yl)quinoline-8-carboxamide]
- IC50 [1]: ≤ 10 nM
- IC50 [2]: ≤ 10 nM
- IC50 [3]: ≤ 100 nM

SMILES: C[C@@H]1C[C@H](N)C[C@H](c2ccncc2NC(=O)c2ccc(F)c3cc(N4CCOc5cccc(F)c54)cnc23)C1 [Example 120, N-(4-((1R,3S,5S)-3-Amino-5-methylcyclohexyl)pyridin-3-yl)-5-fluoro-3-(5-fluoro-2H-benzo[b][1,4]oxazin-4(3H)-yl)quinoline-8-carboxamide]
- IC50 [1]: ≤ 10 nM
- IC50 [2]: ≤ 10 nM
- IC50 [3]: ≤ 100 nM

SMILES: C[C@@H]1C[C@H](N)C[C@H](c2ccncc2NC(=O)c2ccc(F)c3cc(N4CC(=O)N5CCCC[C@@H]5C4)cnc23)C1 [Example 100, N-(4-((1R,3S,5S)-3-Amino-5-methylcyclohexyl)pyridin-3-yl)-5-fluoro-3-((R)-4-oxodihydro-1H-pyrido[1,2-a]pyrazin-2(6H,7H,8H,9H,9aH)-yl)quinoline-8-carboxamide]
- IC50 [1]: ≤ 10 nM
- IC50 [2]: ≤ 10 nM
- IC50 [3]: ≤ 100 nM

SMILES: CO[C@@H]1CCN(c2cnc3c(C(=O)Nc4cnccc4[C@@H]4C[C@H](C)C[C@H](N)C4)ccc(F)c3c2)[C@H](C)C1 [Example 161, N-(4-((1R,3S,5S)-3-Amino-5-methylcyclohexyl)pyridin-3-yl)-5-fluoro-3-((2R,4R)-4-methoxy-2-methylpiperidin-1-yl)quinoline-8-carboxamide]
- IC50 [1]: ≤ 10 nM
- IC50 [2]: ≤ 10 nM
- IC50 [3]: ≤ 100 nM

SMILES: CC1CN(c2cnc3c(C(=O)Nc4cnccc4[C@@H]4C[C@H](C)C[C@H](N)C4)ccc(F)c3c2)C1 [Example 111, N-(4-((1R,3S,5S)-3-Amino-5-methylcyclohexyl)pyridin-3-yl)-5-fluoro-3-(3-methylazetidin-1-yl)quinoline-8-carboxamide]
- IC50 [1]: ≤ 10 nM
- IC50 [2]: ≤ 10 nM
- IC50 [3]: ≤ 100 nM

SMILES: C[C@@H]1C[C@H](N)C[C@H](c2ccncc2NC(=O)c2ccc(F)c3cc(N(C)c4ccc5nccn5c4)cnc23)C1 [Example 153]
- IC50 [1]: ≤ 10 nM
- IC50 [2]: ≤ 10 nM
- IC50 [3]: 100 to 1000 nM

SMILES: CO[C@@H]1C[C@@H](C)N(c2cnc3c(C(=O)Nc4cnccc4[C@@H]4C[C@H](C)C[C@H](N)C4)ccc(F)c3c2)C1 [Example 156]
- IC50 [1]: ≤ 10 nM
- IC50 [2]: ≤ 10 nM
- IC50 [3]: ≤ 100 nM

SMILES: C[C@@H]1C[C@H](N)C[C@H](c2ccncc2NC(=O)c2ccc(F)c3cc(-c4c(F)cccc4F)nnc23)C1 [Example 91, N-{4-[(1R,3S,5S)-3-amino-5-methylcyclohexyl]pyridin-3-yl}-3-(2,6-difluorophenyl)-5-fluorocinnoline-8-carboxamide]
- IC50 [1]: ≤ 10 nM
- IC50 [2]: 10 to 50 nM
- IC50 [3]: 1000 to 10000 nM

SMILES: C[C@@H]1C[C@H](N)C[C@H](c2ccncc2NC(=O)c2ccc(F)c3cc(N4CCC[C@@H]4C)cnc23)C1 [Example 39, N-(4-((1R,3S,5S)-3-Amino-5-methylcyclohexyl)pyridin-3-yl)-5-fluoro-3-((S)-2-methylpyrrolidin-1-yl)quinoline-8-carboxamide]
- IC50 [1]: ≤ 10 nM
- IC50 [2]: 10 to 50 nM
- IC50 [3]: ≤ 100 nM
